Common to all, as to type: cell-based
The target in one experiment is T1, OR8H1 (Homo sapiens, UniProt Q8NGG4).
T1 construct: expressed in transfected cells; host or cells: HEK293
T1 sequence (Q8NGG4 1-311): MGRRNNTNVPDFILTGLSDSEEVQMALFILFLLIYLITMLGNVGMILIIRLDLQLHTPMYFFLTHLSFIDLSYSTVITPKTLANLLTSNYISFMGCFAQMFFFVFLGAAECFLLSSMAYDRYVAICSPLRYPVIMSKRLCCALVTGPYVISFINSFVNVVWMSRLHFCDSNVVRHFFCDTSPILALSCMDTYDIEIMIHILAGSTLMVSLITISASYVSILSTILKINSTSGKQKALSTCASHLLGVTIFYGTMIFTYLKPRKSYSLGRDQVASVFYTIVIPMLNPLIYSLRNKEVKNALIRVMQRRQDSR
The experiment in a line: Luciferase reporter assay: suppression of the skatole response of OR8H1 expressed in HEK293 cells. The conditions noted are these: for inhibition at 100 µM: read-out: Inhibition rate 8H1. As to the method: (§1) A reaction solution having a composition shown in Table 1 was prepared on a clean bench, and left to stand for 15 minutes. The solution was dispensed to each well of a 96-well plate (BD). Subsequently, HEK293 cells (100 μL, 3×10^5 cells/cm^2) were seeded in each well and cultured for 24 hours in an incubator at 37° C. and under 5% CO2 conditions.
(§2) The olfactory receptor expressed in HEK293 cells activates adenylate cyclase with the aid of Gαs present in cells, to thereby increase intracellular cAMP level. In this study, odorant response was measured by a luciferase reporter gene assay which monitored the intracellular cAMP level as the luminescence value derived from a firefly luciferase gene (fluc2P-CRE-hygro). Also, a Renilla luciferase gene fused downstream of a CMV promoter (hRluc-CMV) was also transfected to HEK293 cells as an internal standard to correct errors in gene transfer efficiency and number of cells.
(§3) Cell culturing was performed for four hours in a CO2-incubator, whereby the luciferase gene sufficiently expressed in the cells. Luciferase activity was measured by means of a Dual-Glo™ luciferase assay system (promega) according to an instruction manual thereof. The luminescence value derived from firefly luciferase induced by odorant stimulation was divided by the luminescence value of cells which were not stimulated with odorants. The thus-obtained—called “fold increase”—was employed as an index for response intensity.
(§4) The response inhibition rate of a test substance was calculated as follows. Firstly, luminescence value derived from firefly luciferase induced by stimulation with skatole (X), and luminescence value in cells which expressed the same receptor but were not stimulated with skatole (Y) were determined. By subtracting Y from X, the receptor activity by stimulation with skatole alone (X−Y) was determined. Similarly, the luminescence value induced by stimulation with a mixture of skatole and a test substance (Z) was determined. Through subtracting Y (the luminescence value in cells which expressed the same receptor but were not stimulated with skatole) from Z, the receptor activity (Z−Y) by stimulation with a mixture of skatole and the test substance was obtained. From the thus-obtained receptor activity by stimulation with skatole alone (X−Y) and the receptor activity in the presence of a test material (Z−Y), the response inhibition rate of the test substance was calculated by the following equation: Inhibition rate (%)={1−(Z−Y)/(X−Y)}×100.
(§5) In each case, multiple independent experiments were performed in duplicate, and the average of each experiment was used.
In general terms: In a reporter assay the amount or activity of a reporter protein is the signal.

In another experiment the target is T2, OR5P3 (Homo sapiens, UniProt Q8WZ94).
T2 construct: expressed in transfected cells; host or cells: HEK293
T2 sequence (Q8WZ94 1-311): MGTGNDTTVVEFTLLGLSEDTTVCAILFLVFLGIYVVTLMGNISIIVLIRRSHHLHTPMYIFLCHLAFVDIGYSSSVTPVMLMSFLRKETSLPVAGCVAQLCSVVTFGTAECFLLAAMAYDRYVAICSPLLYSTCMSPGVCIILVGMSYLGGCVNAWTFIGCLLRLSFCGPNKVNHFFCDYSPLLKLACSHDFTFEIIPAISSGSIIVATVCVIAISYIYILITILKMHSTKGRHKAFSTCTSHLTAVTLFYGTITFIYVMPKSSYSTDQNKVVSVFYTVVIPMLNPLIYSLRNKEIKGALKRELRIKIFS
The experiment in a line: Luciferase reporter assay: suppression of the skatole response of OR5P3 expressed in HEK293 cells. Conditions: test substance 100 μM mixed with 300 μM skatole, HEK293 cells expressing OR5P3. As to the method:
as §1, §2, §3, §4, §5

Another experiment has as its target T3, OR5K1 (Homo sapiens, UniProt Q8NHB7).
T3 construct: expressed in transfected cells; host or cells: HEK293
T3 sequence (Q8NHB7 1-308): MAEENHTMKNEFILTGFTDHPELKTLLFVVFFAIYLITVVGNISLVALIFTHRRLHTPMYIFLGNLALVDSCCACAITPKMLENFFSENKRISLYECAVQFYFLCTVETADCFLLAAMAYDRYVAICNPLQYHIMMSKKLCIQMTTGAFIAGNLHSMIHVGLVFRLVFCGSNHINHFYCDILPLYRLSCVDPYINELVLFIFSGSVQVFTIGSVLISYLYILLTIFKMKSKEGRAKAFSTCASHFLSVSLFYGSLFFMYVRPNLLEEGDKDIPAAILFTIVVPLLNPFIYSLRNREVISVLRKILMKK
Put plainly: Luciferase reporter assay: suppression of the skatole response of OR5K1 expressed in HEK293 cells. Conditions: for inhibition at 100 µM: read-out: Inhibition rate 5K1. As to the method: as §1, §2, §3, §4, §5

A further experiment has as its target T4, OR2W1 (Homo sapiens, UniProt Q9Y3N9).
T4 construct: expressed in transfected cells; host or cells: HEK293
T4 sequence (Q9Y3N9 1-320): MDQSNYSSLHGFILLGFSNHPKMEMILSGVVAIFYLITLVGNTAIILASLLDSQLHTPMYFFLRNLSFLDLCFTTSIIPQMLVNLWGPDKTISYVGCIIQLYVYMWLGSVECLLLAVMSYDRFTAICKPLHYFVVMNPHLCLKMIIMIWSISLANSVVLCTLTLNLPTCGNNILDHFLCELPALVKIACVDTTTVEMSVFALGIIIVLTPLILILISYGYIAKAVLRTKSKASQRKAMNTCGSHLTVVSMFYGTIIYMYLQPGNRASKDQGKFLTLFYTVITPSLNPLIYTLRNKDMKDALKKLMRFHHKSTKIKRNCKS
Put plainly: Luciferase reporter assay: suppression of the skatole response of OR2W1 expressed in HEK293 cells. The conditions noted are these: for inhibition at 100 µM: read-out: Inhibition rate 2W1. On the procedure: as §1, §2, §3, §4, §5

Setting [1] is: 4 h, test substance 100 μM mixed with 300 μM skatole, HEK293 cells expressing OR8H1.
Where [2] appears, read: 4 h, test substance 100 μM mixed with 300 μM skatole, HEK293 cells expressing OR5K1.
Setting [3] is: 4 h, test substance 100 μM mixed with 300 μM skatole, HEK293 cells expressing OR2W1.

This note sets out measurements from patent publication US9249453B2, “Method for identifying a malodor inhibitor” (Kao Corporation, priority 2011, dated 2016).

Like-named read-outs stand apart in the source and are kept apart here. Where only a bound is given, the exact number is not on record here.

As for `CCOC(=O)OC1CCCCC1C(C)(C)C` (stereo not shown) [Flormat, Ethyl 2-tert-butyl cyclohexyl carbonate], on OR8H1 (test substance 100 μM mixed with 300 μM skatole, HEK293 cells expressing OR8H1), the “Inhibition rate 8H1” value is “A (A >80%)”. In addition, the “Inhibition rate 5P3” value on OR5P3 is on record as “A (A >80%)”. For the same compound, on OR5K1 (test substance 100 μM mixed with 300 μM skatole, HEK293 cells expressing OR5K1), the “Inhibition rate 5K1” value is “B (B >50%)”. Also, the “Inhibition rate 2W1” value on OR2W1 (test substance 100 μM mixed with 300 μM skatole, HEK293 cells expressing OR2W1) is “A (A >80%)”.

For `CC1COCc2cc3c(cc21)C(C)(C)C(C)C3(C)C` (stereo not shown) [Galaxolide, 1,3,4,6,7,8-Hexahydro-4,6,6,7,8,8-hexamethylcyclopenta-γ-2-benzopyran], the inhibition – broadly, the share of the control response that was lost under treatment – at 100 µM at OR8H1 (setting [1]) is > 80%; on OR5K1 (setting [2]), > 80%; on OR2W1 (setting [3]), 50 to 80%. In addition, on OR5P3, the “Inhibition rate 5P3” value is on record as “C (C >20%)”.

Consider `CC1C/C=C/CCCCCCCCCC(=O)C1` (stereo not shown) [Muscenone delta, (5E)-3-methylcyclopentadec-5-en-1-one], for which the figures for the inhibition at 100 µM on OR8H1 (setting [1]), at OR5K1 (setting [2]) and at OR2W1 (setting [3]) were 20 to 50%, < 20% and 20 to 50%, respectively. In addition, on OR5P3, the “Inhibition rate 5P3” value is “C (C >20%)”.

As for `CC(C=O)C1CCCCC1` (stereo not shown) [Pollenal II, 2-Cyclohexylpropanal], the inhibition at 100 µM on OR8H1 (setting [1]) is < 20%; at OR5K1 (setting [2]), 20 to 50%; on OR2W1 (setting [3]), 20 to 50%. Further, the “Inhibition rate 5P3” value at OR5P3 is on record as “C (C >20%)”.

Regarding `CC(CO)CC(C)c1ccccc1` (stereo not shown) [Pumple fleur, 2-Methyl-4-phenylpentanol], the inhibition at 100 µM was 50 to 80% at OR8H1 (setting [1]), 20 to 50% on OR5K1 (setting [2]) and < 20% at OR2W1 (setting [3]). The “Inhibition rate 5P3” value on OR5P3 is “A (A >80%)”.

Consider `CC(=O)C1=C(C)C2CC3(C1)C(C)CCC3C2(C)C` (stereo not shown) [acetylcedrene, 1-(2,3,4,7,8,8a-Hexahydro-3,6,8,8-tetramethyl-1H-3a,7-methanoazulen-5-yl)-ethanone], for which the inhibition at 100 µM at OR8H1 (setting [1]), on OR5K1 (setting [2]) and at OR2W1 (setting [3]) was > 80% each time. The “Inhibition rate 5P3” value on OR5P3 is reported as “A (A >80%)”.

For `CC/C=C\CC1=C(C)CCC1=O` [cis-jasmone, (Z)-2-(2-Pentenyl)-3-methyl-2-cyclopenten-1-one], the inhibition at 100 µM on OR8H1 (setting [1]) was 20 to 50%; at OR5K1 (setting [2]), < 20%; on OR2W1 (setting [3]), 50 to 80%. The “Inhibition rate 5P3” value on OR5P3 was “C (C >20%)”.

As to `CC(C)=CCCC(C)CC=O` (stereo not shown) [citronellal, 3,7-Dimethyl-6-octenal], the inhibition at 100 µM on OR8H1 (setting [1]) is < 20%; at OR5K1 (setting [2]) it was 20 to 50%; on OR2W1 (setting [3]), 20 to 50%. The “Inhibition rate 5P3” value at OR5P3 was “C (C >20%)”.

As to `O=C1CCCCCCC/C=C\CCCCCCC1` [civetone, (Z)-Cycloheptadeca-9-en-1-one], the inhibition at 100 µM was 50 to 80% at OR8H1 (HEK293, 4 h); 50 to 80% at OR5K1 (HEK293, 4 h); > 80% on OR2W1 (HEK293, 4 h). Also, the “Inhibition rate 5P3” value on OR5P3 is “B (B >50%)”.

Take `CC12CCC(C1)C(C)(C)C2O` (stereo not shown) [fenchyl alcohol, 1,3,3-trimethyl-bicyclo[2.2.1]heptan-2-ol]: the inhibition at 100 µM at OR8H1 (setting [1]) is 20 to 50%; at OR5K1 (setting [2]), < 20%; on OR2W1 (setting [3]), 20 to 50%. Besides, the “Inhibition rate 5P3” value at OR5P3 is “C (C >20%)”.

As for `CC(C)=CCC/C(C)=C/CO` [geraniol, 2-trans-3,7-Dimethyl-2,6-octadien-1-ol], the inhibition at 100 µM is 50 to 80% on OR8H1 (setting [1]), 20 to 50% on OR5K1 (setting [2]) and < 20% at OR2W1 (setting [3]). Also, at OR5P3, the “Inhibition rate 5P3” value was “B (B >50%)”.

With `O=C1CCCCCCC=CCCCCCCC1` [globanone, 8-Cyclohexadecen-1-one], the values for the inhibition at 100 µM at OR8H1 (setting [1]), at OR5K1 (setting [2]) and on OR2W1 (setting [3]) were < 20%, < 20% and > 80%, respectively. Further, the “Inhibition rate 5P3” value at OR5P3 was “C (C >20%)”.

Turning to `CC(CC=O)CCCC(C)(C)O` (stereo not shown) [hydroxycitronellal, 7-Hydroxy-3,7-dimethyl-octanal], the inhibition at 100 µM on OR8H1 (setting [1]) was 20 to 50%; at OR5K1 (setting [2]), < 20%; on OR2W1 (setting [3]), 20 to 50%. Besides, the “Inhibition rate 5P3” value on OR5P3 is reported as “B (B >50%)”.
